From US20220030866A1, “CONJUGATES OF AUXIN ANALOGS” (The State of Israel, Ministry of Agriculture & Rural …, priority 2019, published 2022)

How the values were obtained:
Assay type in all cases: in vivo
mung bean cuttings = assay: rooting of mung bean cuttings (number of adventitious roots per cutting); details: for effect on AR formation in mung bean cuttings, in words: tested at 2, 10 or 50 μM
Method: Mung bean cuttings have been used for many years as a model for assessing the effect of plant hormones and synthetic chemicals on the rooting process. In the present study, this system was used to ascertain activity of conjugates in inducing adventitious root (AR) formation, and to evaluate the rate of conjugate hydrolysis that releases the free active auxin. […] The rooting activity in this system is determined by the number of adventitious roots per cutting.
The mung bean model was used to examine the activity of conjugates of three phenoxy acids, 4-CPA, MCPA, and 2-DP, on rooting. For comparison, plants were treated with (unconjugated) IBA or with 2-DP conjugated to glycine methyl ester (Gly-ME).

[1] = tested on: cuttings from mature Eucalyptus grandis trees; assay: rooting of cuttings from mature Eucalyptus grandis trees; details: for rooting compared with Compound 1a (4-CPA-ethanolamine), in words: 100 μM, submerging and/or spraying, with or without 6000 ppm IBA; for rooting percentage of eucalyptus cuttings: Example 12: 6000 ppm IBA potassium salt and 50 μM conjugate dip 1 minute, leaves sprayed with 50 μM
Method: Eight-year-old Eucalyptus grandis plants were grown from seeds and placed in a net house in 20 liter pots containing peat and tuff (70:30, v/v), drip irrigated and fertilized with 3 liters of Shefer™ 737 liquid fertilizer (ICL Fertilizers, Israel) per cubic meter of water. Cuttings were collected from branches which grew 2-2.5 meters above the ground. Cuttings were 2-3 mm thick branches, 15 cm long, with 1-2 pairs of leaves. The leaf blades were cut in half to decrease transpiration. Cuttings were treated with 6000 ppm IBA (potassium indole-3-butyric acid) for 1 minute with or without 100 μM of each tested compound. The tested compounds were either applied to the base of the cutting, with or without IBA and/or sprayed on the foliage in the presence of 0.05% Triton™ X-100 surfactant. Cuttings were rooted in rooting tables heated to 25° C. under constant 90% humidity, in a controlled-climate greenhouse. The rooting medium contained crushed polystyrene foam: vermiculite no. 3: pit (3:2:1, v/v/v). Rooting was recorded after 30-60 days. Roots system architecture was analyzed by WinRHIZO™ system scanner and software.
Exemplary conjugates prepared as described in Example 1 were tested for their ability to promote adventitious root (AR) formation in cuttings from mature eucalyptus (Eucalyptus grandis) trees. In this model, AR formation is difficult to induce, with 5-15% root development in the presence of IBA potassium salt [Abu-Abied et al., Plant J 2012, 71:787-799], such that effective AR formation indicates a potent root formation activity.
Various concentrations and mode of applications were tested for each compound in the presence or absence of IBA (the “gold standard” rooting enhancer). A concentration of 100 μM of each conjugate was used for an initial screen of 37 conjugates, in which the compounds were applied to the base of the cutting by dipping (submerging the cutting base in a solution of the conjugate for one minute) or to the foliage by spraying. After 45 days, the cuttings were scored for the presence of callus or roots.
Conjugates prepared as described herein were evaluated in a Eucalyptus grandis rooting model, according to procedures such as described hereinabove. The bases of cuttings (a 12-15 cm long branch with the two upper leaves, whose blades were cut in half) were dipped in a solution containing 6000 ppm IBA potassium salt and 50 μM of conjugate for 1 minute, and the leaves were sprayed with 50 μM of the same conjugate (mixed with 0.5% Triton™ X-100 surfactant). The cuttings were imbedded in a heated (25° C.) rooting table containing a 1:2:3 ratio of peat:vermiculite:polystyrene, under 90% relative humidity.

Arabidopsis seedlings = assay: root elongation inhibition in Arabidopsis seedlings; details: 50 nM, after 5 days
Method: Adventitious roots (ARs) were induced in intact plants, using previously described procedures [Gutierrez et al., Plant Cell 2009, 21:3119-3132; Abu-Abied et al., Plant J 2012, 71:787-799; Rasmussen et al., Plant Physiol 2012, 158:1976-1987]. Briefly, seeds were germinated on MS/0.8% agar plates supplemented with 3% sucrose. The plates were kept in the dark for 2 days at 4° C., then 5 days at 22° C. in the dark, 2 days in the light, 3 days in the dark and then additional 4 days in the light to complete 2 weeks when roots were counted using a stereoscope. Sensitivity to auxin and/or auxin analogs was determined by following root elongation on vertical plates. The 4-day-old seedlings were transferred to MS plates containing 0.05 or 0.5 μM IAA and the root length was measured after 5 days, including the number of LRs in each root and calculation of the LR density. Each treatment experiment included 10-15 plants and was repeated 3 times.
A common technique for evaluating auxin activity is by determining the ability of a compound to inhibit root elongation [Zolman et al., Genetics 2000, 156:1323-1337]. In order to use this assay for comparing auxin activities of different conjugates, the minimum concentration of free 4-CPA that is active in the root elongation inhibition assay was determined. Four days old seedlings were placed in vertical plates containing increasing concentrations of 4-CPA. The root lengths were marked daily during 5 days.
Based on the above results, the effect of conjugates of 4-CPA (Compounds 1o-1t) on root elongation after 5 days was determined at concentrations of 50 nM.

[2] = tested on: avocado rootstock cuttings; assay: rooting of avocado rootstock cuttings; details: vc51 rootstock, IBA with compound; for rooting success rate of green avocado branches, in words: compared with IBA alone
Excerpt: Avocado rootstock is extremely difficult to root. Currently, the common technique for propagating clones of avocado rootstock is to graft the desired rootstock on a seedling, and transfer to the dark to generate an etiolated branch. This branch can be rooted and grafted with the desired variety while still grafted on the seed [Frolich & Platt, California Avocado Society 1971-72 Yearbook 1972, 55:97-109]. However, the preparation of such twice-grafted seedlings is time-consuming and expensive.
The ability of exemplary conjugates to promote rooting in green avocado cuttings (in the presence of IBA) was therefore examined. In particular, Compounds 2h (MCPA-methanol), 4b (NAA-β-alanine methyl ester), 3g (2-DP-methyl-4-aminobenzoate), 3f (2-DP-p-toluidine), 1l (4-CPA-morpholine) and is (4-CPA-D-Trp) were tested.
Exemplary conjugates were also tested for rooting the hard-to-root species of avocado (VC801 rootstock) and argan, according to procedures described hereinabove.

[3] = Table 1, 50 μM, water control 29.6
[4] = Table 1, 10 μM, water control 29.6

## CCC(C)NC(=O)COc1ccc(Cl)cc1 (stereo not drawn) [Compound 1i]
Mung bean cuttings; Table 2, 2 μM
  rooting of mung bean cuttings (number of roots per cutting): 23
Mung bean cuttings; Table 2, 10 μM
  rooting of mung bean cuttings (number of roots per cutting): 25
Mung bean cuttings; Table 2, 50 μM
  rooting of mung bean cuttings (number of roots per cutting): 0
[1]
  rooting compared with Compound 1a (4-CPA-ethanolamine), in words: not more effective at inducing rooting

## Cc1ccccc1NC(=O)COc1ccc(Cl)cc1 [Compound 1e]
Mung bean cuttings; [3]
  rooting of mung bean cuttings (number of roots per cutting): 0

## CN(CCO)C(=O)COc1ccc(Cl)cc1 [Compound 1n]
Mung bean cuttings; Table 2, 2 μM
  rooting of mung bean cuttings (number of roots per cutting): 16
Mung bean cuttings; Table 2, 10 μM
  rooting of mung bean cuttings (number of roots per cutting): 24
Mung bean cuttings; Table 2, 50 μM
  rooting of mung bean cuttings (number of roots per cutting): 35
Mung bean cuttings
  effect on AR formation in mung bean cuttings, in words: moderate rooting activity at 50 μM
[1]
  rooting compared with Compound 1a (4-CPA-ethanolamine), in words: not more effective at inducing rooting

## COC(=O)c1ccc(NC(=O)COc2ccc(Cl)cc2C)cc1 [Compound 2g]
Mung bean cuttings; [4]
  rooting of mung bean cuttings (number of roots per cutting): 0
Mung bean cuttings; [3]
  rooting of mung bean cuttings (number of roots per cutting): 0

## COC(=O)c1ccnc(NC(=O)C(C)Oc2ccc(Cl)cc2Cl)c1 (stereo not drawn) [Compound 3d]
Mung bean cuttings; [4]
  rooting of mung bean cuttings (number of roots per cutting): 41.6
Mung bean cuttings; [3]
  rooting of mung bean cuttings (number of roots per cutting): 85.8

## COC(=O)[C@H]1CCCN1C(=O)COc1ccc(Cl)cc1 [4-CPA-D-Pro-methyl ester]
[1]
  rooting percentage of eucalyptus cuttings: 10%

## Cc1ccccc1NC(=O)C(C)Oc1ccc(Cl)cc1Cl (stereo not drawn) [Compound 3e]
Mung bean cuttings; [4]
  rooting of mung bean cuttings (number of roots per cutting): 37.3
Mung bean cuttings; [3]
  rooting of mung bean cuttings (number of roots per cutting): 41.7

## COC(=O)C[C@@H](NC(=O)COc1ccc(Cl)cc1)C(=O)OC [Compound 1q, 4-CPA-D-Asp-methyl diester]
Arabidopsis seedlings
  effect on root elongation relative to control, in words: did not affect root elongation
Mung bean cuttings; Table 2, 2 μM
  rooting of mung bean cuttings (number of roots per cutting): 67
Mung bean cuttings; Table 2, 10 μM
  rooting of mung bean cuttings (number of roots per cutting): 0
Mung bean cuttings; Table 2, 50 μM
  rooting of mung bean cuttings (number of roots per cutting): 0

## COC(=O)c1ccnc(NC(=O)COc2ccc(Cl)cc2C)c1 [Compound 2d]
Mung bean cuttings; [4]
  rooting of mung bean cuttings (number of roots per cutting): 64.3
Mung bean cuttings; [3]
  rooting of mung bean cuttings (number of roots per cutting): 0

## Cc1ccc(NC(=O)COc2ccc(Cl)cc2)nc1 [Compound 1c]
Mung bean cuttings; [3]
  rooting of mung bean cuttings (number of roots per cutting): 0

## Cc1ccc(NC(=O)COc2ccc(Cl)cc2C)cc1 [Compound 2f]
Mung bean cuttings; [4]
  rooting of mung bean cuttings (number of roots per cutting): 0
Mung bean cuttings; [3]
  rooting of mung bean cuttings (number of roots per cutting): 0

## COC(=O)CCNC(=O)COc1ccc(Cl)cc1C [Compound 2b]
Mung bean cuttings; [4]
  rooting of mung bean cuttings (number of roots per cutting): 94.8
Mung bean cuttings; [3]
  rooting of mung bean cuttings (number of roots per cutting): 63.2

## O=C(COc1ccc(Cl)cc1)N1CCOCC1 [Compound 1l, 4-CPA-morpholine]
[2]
  roots per cutting of green avocado branches compared with etiolated branches treated with IBA, in words: considerably more roots per cutting
  rooting success rate of green avocado branches, in words: considerably enhanced the rooting success rate
Mung bean cuttings; Table 2, 2 μM
  rooting of mung bean cuttings (number of roots per cutting): 23
Mung bean cuttings; Table 2, 10 μM
  rooting of mung bean cuttings (number of roots per cutting): 0
Mung bean cuttings; Table 2, 50 μM
  rooting of mung bean cuttings (number of roots per cutting): 0
[1]
  rooting compared with Compound 1a (4-CPA-ethanolamine), in words: not more effective at inducing rooting

## Cc1cc(Cl)ccc1OCC(=O)NCCO [Compound 2a]
Mung bean cuttings; [4]
  rooting of mung bean cuttings (number of roots per cutting): 34.7
Mung bean cuttings; [3]
  rooting of mung bean cuttings (number of roots per cutting): 72.1

## COC(=O)[C@@H](CC(C)C)NC(=O)COc1ccc(Cl)cc1 [4-CPA-D-Leu-methyl ester]
[1]
  rooting percentage of eucalyptus cuttings: 5%

## CC(Oc1ccc(Cl)cc1Cl)C(=O)NCCO (stereo not drawn) [Compound 3a]
Mung bean cuttings; [4]
  rooting of mung bean cuttings (number of roots per cutting): 26.4
Mung bean cuttings; [3]
  rooting of mung bean cuttings (number of roots per cutting): 24.1

## COC(=O)c1ccc(NC(=O)C(C)Oc2ccc(Cl)cc2Cl)cc1 (stereo not drawn) [Compound 3g, 2-DP-methyl-4-aminobenzoate]
[2]
  roots per cutting of green avocado branches compared with etiolated branches treated with IBA, in words: considerably more roots per cutting
  rooting success rate of green avocado branches, in words: considerably enhanced the rooting success rate
Mung bean cuttings; [4]
  rooting of mung bean cuttings (number of roots per cutting): 46.2
Mung bean cuttings; [3]
  rooting of mung bean cuttings (number of roots per cutting): 46.4

## COC(=O)CCNC(=O)Cc1cccc2ccccc12 [Compound 4b, NAA-β-alanine methyl ester]
[2]
  roots per cutting of green avocado branches compared with etiolated branches treated with IBA, in words: considerably more roots per cutting
  rooting success rate of green avocado branches, in words: considerably enhanced the rooting success rate

## COC(=O)c1ccnc(NC(=O)COc2ccc(Cl)cc2)c1 [Compound 1d]
Mung bean cuttings; [4]
  rooting of mung bean cuttings (number of roots per cutting): 0
Mung bean cuttings; [3]
  rooting of mung bean cuttings (number of roots per cutting): 0

## CC(Oc1ccc(Cl)cc1Cl)C(=O)O (stereo not drawn) [Compound 2-DP, 2-(2,4-dichlorophenoxy)propionic acid, reference compound]
Mung bean cuttings
  effect on AR formation in mung bean cuttings, in words: positively correlated to dose

## O=C(COc1ccc(Cl)cc1)N1CCCCC1 [Compound 1k]
Mung bean cuttings; Table 2, 2 μM
  rooting of mung bean cuttings (number of roots per cutting): 25
Mung bean cuttings; Table 2, 10 μM
  rooting of mung bean cuttings (number of roots per cutting): 34
Mung bean cuttings; Table 2, 50 μM
  rooting of mung bean cuttings (number of roots per cutting): 0
[1]
  rooting compared with Compound 1a (4-CPA-ethanolamine), in words: not more effective at inducing rooting

## CCCCNC(=O)COc1ccc(Cl)cc1 [Compound 1j]
Mung bean cuttings; Table 2, 2 μM
  rooting of mung bean cuttings (number of roots per cutting): 22
Mung bean cuttings; Table 2, 10 μM
  rooting of mung bean cuttings (number of roots per cutting): 0
Mung bean cuttings; Table 2, 50 μM
  rooting of mung bean cuttings (number of roots per cutting): 0
[1]
  rooting compared with Compound 1a (4-CPA-ethanolamine), in words: not more effective at inducing rooting

## O=C(COc1ccc(Cl)cc1)N(CCO)CCO [Compound 1m]
[1]
  rooting compared with Compound 1a (4-CPA-ethanolamine), in words: not more effective at inducing rooting

## COC(=O)COc1ccc(Cl)cc1C [Compound 2h, MCPA-methanol]
[2]
  roots per cutting of green avocado branches compared with etiolated branches treated with IBA, in words: considerably more roots per cutting
  rooting success rate of green avocado branches, in words: considerably enhanced the rooting success rate

## Cc1ccc(NC(=O)COc2ccc(Cl)cc2C)nc1 [Compound 2c]
Mung bean cuttings; [4]
  rooting of mung bean cuttings (number of roots per cutting): 0
Mung bean cuttings; [3]
  rooting of mung bean cuttings (number of roots per cutting): 0

## Cc1ccccc1NC(=O)COc1ccc(Cl)cc1C [Compound 2e]
Mung bean cuttings; [4]
  rooting of mung bean cuttings (number of roots per cutting): 23.6
Mung bean cuttings; [3]
  rooting of mung bean cuttings (number of roots per cutting): 0
